Measurements as given in the NIST ThermoML archive (doi:10.1021/je800145h).

Conditions: Liquid

CCCO [propan-1-ol]
Conditions | vapor or sublimation pressure [kPa]
347.55 K | 40
354.18 K | 53.33
359.56 K | 66.66
364.11 K | 79.99
368.08 K | 93.32
369.55 K | 98.66

CC(C)(C)O [2-methylpropan-2-ol]
Conditions | vapor or sublimation pressure [kPa]
333.9 K | 40
340.13 K | 53.33
345.21 K | 66.66
349.53 K | 79.99
353.32 K | 93.32
354.61 K | 98.66

CC(C)CO [2-methyl-1-propanol]
Conditions | vapor or sublimation pressure [kPa]
357.45 K | 40
364.17 K | 53.33
369.67 K | 66.66
374.35 K | 79.99
378.45 K | 93.32
379.96 K | 98.66

CCO [ethanol]
Conditions | vapor or sublimation pressure [kPa]
329.62 K | 40
335.99 K | 53.33
341.2 K | 66.66
345.6 K | 79.99
349.42 K | 93.32
350.82 K | 98.66

C1CCOCC1 [tetrahydropyran]
Conditions | mass density [kg/m3]
298.15 K, 101.33 kPa, Vibrating tube method | 879

Conditions | vapor or sublimation pressure [kPa]
332.98 K | 40
341.09 K | 53.33
347.72 K | 66.66
353.38 K | 79.99
358.37 K | 93.32
360.22 K | 98.66
361.23 K | 101.32

CC(C)O [propan-2-ol]
Conditions | vapor or sublimation pressure [kPa]
333.94 K | 40
340.18 K | 53.33
345.25 K | 66.66
349.55 K | 79.99
353.3 K | 93.32
354.67 K | 98.66

CCCCO [butan-1-ol]
Conditions | vapor or sublimation pressure [kPa]
366.76 K | 40
373.74 K | 53.33
379.43 K | 66.66
384.26 K | 79.99
388.49 K | 93.32
390.04 K | 98.66

CO [methanol]
Conditions | vapor or sublimation pressure [kPa]
315.75 K | 40
322.15 K | 53.33
327.34 K | 66.66
331.73 K | 79.99
335.57 K | 93.32
336.98 K | 98.66

CCC(C)O (stereo unspecified) [butan-2-ol]
Conditions | vapor or sublimation pressure [kPa]
349.73 K | 40
356.36 K | 53.33
361.77 K | 66.66
366.36 K | 79.99
370.38 K | 93.32
371.86 K | 98.66
